Source: PMC11170107, “Development of a new hazard scoring system in primary neuronal cell cultures for drug-induced acute neuronal toxicity identification in early drug discovery” (Frontiers in Pharmacology, 2024)
“Also recorded” adds a separate entry of the source. Read-outs that look alike come from different tables or passages of the source.

Key:
[1] = test system: rat primary cortical neurons; experiment: MEA hazard scoring in rat primary cortical neuronal cultures; details: for hazard classification in the hazard scoring system: rat primary neurons on MEA; for Area.Under.Cross.Correlation Lower.TI / Area.Under.Cross.Correlation Upper.TI / Burst.Duration...Avg.(s. Lower.TI) / Burst.Duration...Avg.(s. Upper.TI) / Mean.Firing.Rate..Hz. Lower.TI / Mean.Firing.Rate..Hz. Upper.TI / Median.Mean.ISI Lower.TI / Median.Mean.ISI Upper.TI: statistical tolerance interval of the ΔΔ% effect, One-sided interval
Method: (§1) At DIV28, spontaneous neuronal activity obtained for 30 min in culture solution was defined as the baseline.
(§2) Data analysis was captured using AxIs suite software (Axion Biosystems Inc., version 3.6.2) and further analyzed using GraphPad Prism (version 9.00; GraphPad Software Inc., San Diego, CA). […] An active well should have more than 40% active electrodes. All wells below this threshold were discarded upon these quality criteria. For the downstream statistical analysis, the data on each MEA parameter was first expressed as the ratio of exposed wells (percentage change between baseline and the treatment) and then normalized to the average of the control within the same plate. i.e., Baseline corrected ratios of n= 7 or eight wells were averaged per condition. Each well of the MEA served as its own control, and the changes in the electrical activity elicited by the treatments were expressed as a percentage of that control activity and normalized to the wells treated with the vehicle control dimethyl sulfoxide (DMSO). […] Differences were determined using the non-parametric Wilcoxon Mann Whitney test; p-values below 0.05 were considered significant. Data are expressed as means ± S.E.M.
(§3) Thereafter, based on the effects of vehicles and positive controls, we determined the cut-off points between the different effect zones according to the key parameters selected as described in the previous subsection. The zones were defined as follows. The “no effect” zone reflects parameter changes that are most likely within vehicle variability. The “mild” and “strong” zones are differentiated bidirectionally showing mild and strong effects.
(§4) The respective hazard class was determined by a cumulative scoring of individual parameters using a scoring matrix, which was based on the following three fundamental components: (1) selection of the six key relevant parameters, (2) defining the cutoffs for the level of effect, and (3) defining weighted points per parameter for the level of hazard potential. The scoring matrix concluded with the addition of a weighted point algorithm to discriminate distinct degrees of neuronal hazard. […] The weighted points were defined on the importance of a parameter (and the direction of effect), as well as the identification of an expected hazard for different pharmacological modes of action. The overall hazard score is derived from the sum of all weighted parameters, which could be converted into a specific hazard label. The weighted points and total score range associated with the various hazard labels were optimized using an iterative process.

[2] = ref National library of medicine, Daylimed; cited from earlier work
[3] = Supplementary Table S1; cited from earlier work
[4] = WHO adverse drug reactions VigiBase; ref Kumlien and Lundberg, 2010; cited from earlier work
[5] = established from VigiBase, SIDER, Elsevier drug information and FDA prescribing information
[6] = seizure ADR frequency in SIDER; ref Campillos et al., 2008; Kuhn et al., 2010; cited from earlier work
[7] = test system: rat primary cortical neurons
Method: as §1, §2, §3, §4

Row | Compound | FDA prescription information at therapeutic dose (Convulsion/ Seizure/Lower the seizure threshold/withdrawal) [2] | Free Cmax highest [3] [nM] | Percentage seizures of total number of ADRs [4] [%] | Classification* (degree of seizure risk) [5] | SIDER ADR on-/off-label [6] | further results
1 | N=C(N)NC(=O)c1nc(Cl)c(N)nc1N [Amiloride] | not found on label | 74.6 | 0.3506 | No risk | not found on label | hazard classification in the hazard scoring system [1]: high seizure risk; firing rate (weighted mean firing rate) in MEA recordings ([1]; rodent cortical neurons in vitro): increase of activity
2 | CC(=O)Oc1ccccc1C(=O)O [Aspirin] | not found on label | 43400 | 0.216 | No risk | not found on label | 
3 | O=C(CCCl)NCc1ccccc1 [Beclamide] |  |  | 0 | Low risk |  | hazard classification in the hazard scoring system [1]: high hazard
4 | CC(C)C[C@H]1C(=O)N2CCC[C@H]2[C@]2(O)O[C@](NC(=O)[C@@H]3C=C4c5cccc6[nH]c(Br)c(c56)C[C@H]4N(C)C3)(C(C)C)C(=O)N12 [Bromocriptine] | On label | 1.4 | 3.063 | Risk | postmarketing | 
5 | CN1C(=O)CN=C(c2ccccc2)c2cc(Cl)ccc21 [Diazepam] | On label |  |  |  |  | hazard score group in Figure 3 [7]: Neuro Active to high hazard
6 | CCN(CC)C(=O)/C(C#N)=C/c1cc(O)c(O)c([N+](=O)[O-])c1 [Entacapone] | not found on label | 130 | 0.4204 | Risk | no frequency information | 
7 | CN1C[C@H](C(=O)N[C@]2(C)O[C@@]3(O)[C@@H]4CCCN4C(=O)[C@H](Cc4ccccc4)N3C2=O)C=C2c3cccc4[nH]cc(c34)C[C@H]21 [Ergotamine] | not found on label | 0.4 | 0.8818 | Risk | not found on label | hazard score group in Figure 3 [7]: Neuro Active to high hazard
8 | NC(=O)OCC(COC(N)=O)c1ccccc1 [Felbamate] | on label | 181000 | 9.4112 | Low risk | not found on label | 
9 | CNCCC(Oc1ccc(C(F)(F)F)cc1)c1ccccc1 (centres unmarked) [Fluoxetine] | On label | 470 | 1.97 | Risk | uncommon | 
10 | NCC(=O)O [Glycine] | not found on label |  |  |  | no frequency information | hazard score group in Figure 3 [7]: Neuro Active to hazard
11 | COc1cc(C(C)=O)ccc1OCCCN1CCC(c2noc3cc(F)ccc23)CC1 [Iloperidone] | not found on label | 12 | 1.653 | Low risk | not found on label | 
12 | CNC1(c2ccccc2Cl)CCCCC1=O (centres unmarked) [Ketamine] | not found on label | 1740 | 1.967 | Low risk | no frequency information | 
13 | Nc1nnc(-c2cccc(Cl)c2Cl)c(N)n1 [Lamotrigine] | On label | 8600 | 7.325 | Risk | 1.9% - 4% | 
14 | O=C1Nc2ccc(Cl)cc2C(c2ccccc2Cl)=NC1O (centres unmarked) [Lorazepam] | on label | 22 | 1.949 | Risk | postmarketing — 0.769% | 
15 | CN1CCN(C2=Nc3ccccc3Oc3ccc(Cl)cc32)CC1 [Loxapine] | On label | 44 | 1.962 | Risk | no frequency information | 
16 | NC(=O)C[S+]([O-])C(c1ccccc1)c1ccccc1 (centres unmarked) [Modafinil] | not found on label | 19600 | 1.739 | Risk | postmarketing | 
17 | NCc1cc(=O)[nH]o1 [Muscimol] |  |  |  | Risk |  | Area.Under.Cross.Correlation Lower.TI [1]: -100; Area.Under.Cross.Correlation Upper.TI [1]: -21.99; Burst.Duration...Avg.(s. Lower.TI) [1]: -100; Burst.Duration...Avg.(s. Upper.TI) [1]: 465.5; Mean.Firing.Rate..Hz. Lower.TI [1]: -100; Mean.Firing.Rate..Hz. Upper.TI [1]: -23.34; Median.Mean.ISI Lower.TI [1]: -100; Median.Mean.ISI Upper.TI [1]: 1.885
18 | CN1CCC[C@H]1c1cccnc1 [Nicotine] | not found on label | 180 |  |  | not found on label | hazard classification in the hazard scoring system [7]: non-neuroactive; hazard score group in Figure 3 [7]: Non-Neuro Active
19 | N#Cc1ccccc1-c1cc(-c2ccccn2)cn(-c2ccccc2)c1=O [Perampanel] | not found on label | 163 | 7.31 | Low risk | not found on label | hazard classification in the hazard scoring system [1]: hazards; also recorded: high hazard
20 | CCOC(=O)C1(c2ccccc2)CCN(C)CC1 [Pethidine] |  | 250 |  |  | no frequency information | hazard score group in Figure 3 [7]: Neuro Active to hazard
21 | FC(F)(F)c1ccc(CNc2ccc(Cc3c[nH]c4ncc(Cl)cc34)cn2)cn1 [Pexidartinib] | not found on label | 100 | 0.5386 | Risk |  | 
22 | CC(C)C[C@H](CN)CC(=O)O [Pregabalin] |  |  | 0.8034 |  |  | hazard score group in Figure 3 [7]: Non-Neuro Active
23 | CCN(CC)CCCC(C)Nc1c2ccc(Cl)cc2nc2ccc(OC)cc12 (centres unmarked) [Quinacrine] | not found on label | 130 | 1.17 | No risk |  | 
24 | CS(=O)(=O)c1ccc(C2=C(c3ccccc3)C(=O)OC2)cc1 [Rofecoxib] |  | 130 | 1.2136 | No risk | not found on label | 
25 | C[N+](C)(C)CCOC(=O)CCC(=O)OCC[N+](C)(C)C [Succinylcholine] | not found on label | 170 | 0.792 | No risk | not found on label | 
26 | CNS(=O)(=O)Cc1ccc2[nH]cc(CCN(C)C)c2c1 [Sumatriptan] | On label | 388 | 0.8281 | Risk | rare (<0.1%) | 
27 | Cc1ccc(C(=O)c2cc(O)c(O)c([N+](=O)[O-])c2)cc1 [Tolcapone] | not found on label | 10 | 0.8264 | No risk | not found on label | 
28 | CN1[C@@H]2CC[C@H]1C[C@@H](OC(=O)c1c[nH]c3ccccc13)C2 [Tropisetron] |  | 80 | 1.067 | No risk | not found on label | 
29 | Cc1ccc(Nc2nccc(N(C)c3ccc4c(C)n(C)nc4c3)n2)cc1S(N)(=O)=O [pazopanib] | not found on label | 1330 | 0.4565 | Risk | not found on label | 
30 | Picrotoxin |  |  |  | Risk |  | Area.Under.Cross.Correlation Lower.TI [1]: -46.52; Area.Under.Cross.Correlation Upper.TI [1]: 62.45; Burst.Duration...Avg.(s. Lower.TI) [1]: -2.013; Burst.Duration...Avg.(s. Upper.TI) [1]: 280.4; Mean.Firing.Rate..Hz. Lower.TI [1]: -10.62; Mean.Firing.Rate..Hz. Upper.TI [1]: 76.43; Median.Mean.ISI Lower.TI [1]: -29.71; Median.Mean.ISI Upper.TI [1]: 0.6132
